Laboratory results reported in patent US20190269801A1 (CEDARS-SINAI MEDICAL CENTER, priority 2016, published 2019).
Like-named read-outs stand apart in the source and are kept apart here. Values belong to the molecule of their own block, whether it stands above or below them.

Legend:
[1] = system: PC cell lines (PC3, LNCaP, C4-2, C4-2B, 22Rv1); assay: Viability of immortalized prostate cancer cell lines grown as 2D monolayers; assay type: cell-based, human; settings: 72 hours of drug exposure
Experimental: (§1) Immortalized PC cell lines (PC3, LNCaP, C4-2, C4-2B, 22Rv1) and 3-D spheroid growth of mouse bone marrow-derived LNCaP and C4-2B and ex vivo expanded CTCs from patients were used. […] Induction of apoptosis was assessed by caspase 3/7 luminescent assay. Growth inhibitory effects were compared between 2-D and 3-D. Senescent luciferase-tagged LNCaP and C4-2B cells from mouse bone marrow regained growth potential when propagated in vitro as 3D spheroids. RPMI medium supplemented with 10% FBS and 1% penicillin/streptomycin was used to grow CTCs in vitro.

Naive C4-2B PC cells = assay: Growth inhibition of naive C4-2B PC cells cultured as 2D monolayer; settings: for IC50: Homo sapiens
[2] = system: ex vivo expanded CTCs from PC patients and LNCaP and C4-2B cells from mouse bone marrow, 3-D spheroids; assay: Viability/apoptosis of PC CTCs and bone marrow-derived LNCaP and C4-2B grown as 3-D spheroids; assay type: cell-based, human
Experimental: as §1

Resistant C4-2B PC cells = assay: Growth inhibition of AA/EZ resistant C4-2B PC cells cultured as 2D monolayer; assay type: cell-based; settings: Homo sapiens
microtubule = assay: Microtubule dynamics in PC cells; assay type: cell-based
Experimental: Microtubule dynamics are measured in NIR-SM or SM treated PC cells in the presence or absence of DT according to published protocols. Microtubule dynamics are assessed by fluorescence imaging methods, where immunolabeled tubulin is the readout for measurements of polarized forced generation, contractility and response to substrate stiffness measured in the presence of DT using established protocols. […] We test other agents, such as nocodazole and vincristine, which without being bound by theory we hypothesize block the polymerization of tubulin into microtubules, and cold temperature that can cause a rapid depolymerization of microtubules. With these controls, we determine if NIR-SM or SM may differ in enhancing the activity of DT in promoting microtubule polymerization in PC cells.

[3] = system: renal (ACHN, o-786, SKRC, Caki-1), breast (MCF-7), lung (H358), liver (HepG2), prostate (PC3, LNCaP, C4-2B), pancreatic (MIAPaCa II) and glioblastoma (U87) …; assay: Cell inhibition by NIR-783 dye in a cancer cell line panel; assay type: cell-based; settings: in vitro
human PC cell lines = assay: IC50 in commonly used human PC cell lines; assay type: cell-based
[4] = system: ex vivo propagated CTCs from human PC patients (3D spheroids)
[5] = system: pancreatic and breast cancer CTCs; settings: 3-D spheroids
[6] = system: Ramos, a B-cell lymphoma, 3-D spheroids; assay: Cytotoxicity in Ramos B-cell lymphoma 3-D spheroids; assay type: cell-based
[7] = system: ovarian tumor cells OV90 and OVCA433; settings: in vitro
PC3 tumor xenograft = settings: PC3 tumors in mouse; listed as dye-simvastatin
[8] = system: Prostate circulating tumor cells CTC 864; settings: 4 μM, 24 hours; vs control, docetaxel 1.25 μM, abiraterone acetate 3.125 μM
[9] = system: ex vivo propagated CTCs from human PC patients (3D spheroids); assay: Cytotoxicity in ex vivo propagated prostate cancer CTCs grown as 3D spheroids
PDAC tumors = settings: imaged 3 days after i.p. administration
[10] = system: PC cells, 3D spheroids vs 2D monolayer; settings: average
[11] = system: RCC cell lines Caki-1, o-786, ACHN and SK-RC; assay: Growth and viability of RCC cell lines, 72 h exposure (crystal violet); assay type: cell-based, human; settings: range over all RCC cell lines tested
Experimental: (§2) 5,000 cells/well renal cancer cells and 10,000 cells/well lymphoma cells are seeded in 96 well plates in 100 microliter medium/per well for 24 h. […] Renal cancer cells are fixed with 3.7% paraformaldehyde for 15 minutes and are stained with Crystal violet solution (0.5% in 25% methanol) for 30 minutes. After rinsing with water cell layers are dried and decolorized with Sorenson citrate with shaking for 20 minutes. […] Lymphoma cell growth was evaluated using MTT and cells are incubated for 4 hours.
Apoptosis was assessed by caspase 3/7 luminescent assay. Cleavage of apoptosis substrates was determined by western blotting. […] Formalin-fixed tumor, liver and kidney sections were stained with H&E and kidney sections were scored semiquantitativey.

[12] = system: B-cell lymphoma cell lines Namalwa, Raji, CA46, Ramos, Daudi; assay: Growth and viability of B-cell Burkitt's lymphoma cell lines, MTT, 72 h; assay type: cell-based, human; settings: 72 h exposure; range over all BL cell lines tested
Experimental: as §2
(§3) Induction of apoptosis was assessed using a caspase 3/7 luminescent assay. Cleavage of apoptosis substrates and inhibition of c-myc was determined by western blotting, with images quantified by ImageJ after normalization with GAPDH. […] Formalin-fixed tumor and kidney sections were stained with hematoxylin and esosin and kidney sections scored using a semiquantitative scale designed to assess AKI-associated tubular injury (tubular epithelial cell loss, necrosis, tubular epithelial simplification, intratubular debris, and casts).

bcl-2 = bcl-2 western blot in BL cell lines; assay type: cell-based, human
[13] = system: Namalwa and Raji cell lines; assay: Apoptosis by caspase 3/7 luminescent assay and western blot in BL cell lines; assay type: cell-based, human; settings: 24 hours of drug exposure, 8, 16, 32 μM
Experimental: Namalwa cells are cultured in RPMI 1640, 10% fetal bovine serum, 1% PenStrep, and placed in a humidified atmosphere containing 5% CO2 at 37° C. 10,000-15,000 cells/well are seeded in 96 white wall well plates in 100 microliter medium/per well for 24 h. […] 100 microliters of Caspase-Glo 3/7 assay is added and luminescence is then read. Caki-1 cells are cultured in RPMI 1640, 10% fetal bovine serum, 1% PenStrep, and placed in a humidified atmosphere containing 5% CO2 at 37° C. 5,000 cells/well are seeded in 96 white wall well plates in 100 microliter medium/per well for 24 h. […] 100 microliters of Caspase-Glo 3/7 assay is added and luminescence is then read.

c-myc = c-myc western blot in BL cell lines; assay type: cell-based, human
mouse kidneys = assay: Kidney histopathology, AKI-associated tubular injury score, Namalwa-bearing mice; settings: i.p. 3 times a week for 4 weeks
Experimental: FIG. 27 depicts in accordance with various embodiments of the invention, formalin-fixed kidney sections are stained with hematoxylin and esosin and scored using a semiquantitative scale designed to assess AKI-associated tubular injury (tubular epithelial cell loss, necrosis, tubular epithelial simplification, intratubular debris, and casts).
as §3

Namalwa tumors = assay: Namalwa xenograft growth in mice; assay type: in vivo, mouse; settings: equimolar doses i.p. 3 times a week

Molecule: CC(=O)O[C@H]1CC[C@@]2(C)C(=CC[C@@H]3[C@@H]2CC[C@]2(C)C(c4cccnc4)=CC[C@@H]32)C1 [AA, abiraterone acetate]
sensitivity of cells grown as 2D monolayers [1]: sensitive
IC50 (Naive C4-2B PC cells; read-out: AA IC50, Naive C4-2B, 2D monolayer, NIR-SM 0 μM): 6.79 µM
IC50 (Naive C4-2B PC cells; read-out: AA IC50, Naive C4-2B, 2D monolayer, NIR-SM 0.25 μM): 1.65 µM
sensitivity of cells grown as 3-D spheroids [2]: resistance with no signs of apoptosis
IC50 (Resistant C4-2B PC cells; NIR-SM 0 μM): 13.3 µM
IC50 (Resistant C4-2B PC cells; NIR-SM 0.25 μM): 3.32 µM

Molecule: CC(=O)O[C@@]12CO[C@@H]1C[C@H](O)[C@@]1(C)C(=O)[C@H](O)C3=C(C)[C@@H](OC(=O)[C@H](O)[C@@H](NC(=O)OC(C)(C)C)c4ccccc4)C[C@@](O)([C@@H](OC(=O)c4ccccc4)[C@H]21)C3(C)C [DT, docetaxel]
sensitivity of cells grown as 2D monolayers [1]: sensitive
sensitivity of cells grown as 3-D spheroids [2]: resistance with no signs of apoptosis
effect on microtubules (microtubule): enhances microtubule polarization and inhibits shrinkage of microtubule length

Molecule: CNC(=O)c1ccc(N2C(=S)N(c3ccc(C#N)c(C(F)(F)F)c3)C(=O)C2(C)C)cc1F [EZ, enzalutamide]
sensitivity of cells grown as 2D monolayers [1]: sensitive
sensitivity of cells grown as 3-D spheroids [2]: resistance with no signs of apoptosis

Molecule: CC1(C)C(=CC=C2CCCC(C=CC3=[N+](CCCCS(=O)(=O)[O-])c4ccccc4C3(C)C)=C2Cl)N(CCCCS(=O)(=O)[O-])c2ccccc21.[Na+] [NIR-783]
cell inhibition effect [3]: does not exhibit significant cell inhibition effect

Molecule: CCC(C)(C)C(=O)O[C@H]1C[C@@H](C)C=C2C=C[C@H](C)[C@H](CC[C@@H]3C[C@@H](OC(=O)CCCCCN4/C(=C/C=C5\CCCC(/C=C/C6=[N+](CCCCS(=O)(=O)[O-])c7ccccc7C6(C)C)=C5Cl)C(C)(C)c5ccccc54)CC(=O)O3)[C@H]21 [NIR-SM, DZ-1-Simvastatin Conjugate]
effect on the growth of PC cells (human PC cell lines; 0.25 μM): marginal effects
IC50 [4]: 5 µM
enhancement of the cytotoxicity exerted by AA, EZ or DT [4]: 21-122 fold
effectiveness relative to unconjugated simvastatin [5]: more effective than unconjugated simvastatin
potency relative to unconjugated simvastatin [6]: about 5 fold
synergized cisplatin cytotoxicity [6]: over 190 fold
sensitization of the cytotoxic effects of AA and EZ (Naive C4-2B PC cells; NIR-SM 0.25 μM, both control and AA/EZ resistant PC cells in the C4-2B background): 4-5 fold
sensitivity of cell growth relative to unconjugated drug [7]: more sensitive
accumulation in tumor (PC3 tumor xenograft): selective accumulation
rate of apoptosis (caspase 3/7) [8]: significantly higher rate of apoptosis
IC50 lower than SM [9]: about 4 fold
effectiveness relative to unconjugated simvastatin [9]: more effective than unconjugated simvastatin
tumor targeting (PDAC tumors): targets specifically PDAC tumors
synergy with enzalutamide (Enz) and abiraterone acetate (Abi) growth inhibition (C4-2B cells): synergizes the growth inhibitory effects of anti-androgens
synergy with docetaxel growth inhibition (C4-2B cells; conjugate at 2 uM): synergizes the growth inhibitory effects of docetaxel
accumulation in PC 3D spheroids higher than in PC 2D monolayer [10]: 5 fold

IC50 (human PC cell lines; Homo sapiens, range over cell lines, dependent upon the cell types): 1 to 7 µM
Molecule: CCC(C)(C)C(=O)O[C@H]1C[C@@H](C)C=C2C=C[C@H](C)[C@H](CC[C@@H]3C[C@@H](O)CC(=O)O3)[C@H]21 [SM, Simvastatin, reference compound]
IC50 ([9]; ex vivo propagated CTCs): 20 µM

Molecule: N.N.[Cl][Pt][Cl] [cisplatin, reference compound]
IC50 [11]: > 64 µM
IC50 [12]: > 64 µM
bcl-2 expression (bcl-2): no significant changes
induction of apoptosis (caspase 3/7; caspase 9, caspase 3 and PARP) ([13]; listed as Cis): no sign of increased apoptotic activity

Molecule: Nc1ccn([C@@H]2O[C@H](CO)[C@@H](O)C2(F)F)c(=O)n1 [gemcitabine]
sensitivity of cells grown as 2D monolayers [1]: sensitive

Molecule: DZ-1-cisplatin [NIR dye-cisplatin]
c-myc expression (c-myc): downregulates
bcl-2 expression (bcl-2): no significant changes
kidney toxicity (histopathology) (mouse kidneys): preserved the integrity and normal morphology of mouse kidneys
tumor growth inhibition (Namalwa tumors): tumor growth inhibition and apoptotic nuclear lobulation/fragmentation
induction of apoptosis (caspase 3/7; caspase 9, caspase 3 and PARP) [13]: induces apoptosis
